Measured values taken from article PMC11391043, “Revealing the pH-dependent conformational changes in sol g 2.1 protein and potential ligands binding” (Scientific Reports, 2024).

Columns and labels:
rSol g 2.1 protein [1] = molecular target: T1, rSol g 2.1 protein (Solenopsis geminata, UniProt A0A9E7V488); test: Fluorescence binding assay of 1-NPN probe with rSol g 2.1 (Scatchard plots); conditions: 50 mM Tris-HCl, ± SEM, triplicate
T1 sequence (A0A9E7V488 1-119): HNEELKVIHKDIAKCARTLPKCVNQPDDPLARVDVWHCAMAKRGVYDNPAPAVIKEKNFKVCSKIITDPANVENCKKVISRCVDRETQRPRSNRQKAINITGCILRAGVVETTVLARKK
Description: The FCBA is that a fluorescence probe, N-phenyl-1-naphthylamine (1-NPN, purity > 98%, Sigma Aldrich) binds with the hydrophobic binding cavity of the protein, especially with Tryptophan amino acid (Trp). Then Trp will transfer energy to 1-NPN-probe, leading to an increased emission wavelength at approximately 400 nm with dose-dependent. Besides, when the aliquot of a ligand competitor, the ligand will be competed for 1-NPN-probe, resulting in a decreased emission wavelength at 400 nm. In this study, we performed the FCBA to determine the binding activity of Sol g 2.1 protein and the potential ligands. […] Fluorescence intensity was measured using a spectrofluorometer (FluoroMax + SpectroFluorometer, Horiba Scientific) with excitation at 337 nm and emission scanning from 370 to 490 nm, at room temperature, in triplicate. The equilibrium dissociation (Kd) value was determined by plotting the fluorescence intensity at 400 nm against each 1-NPN concentration. The data were fitted to a one-site-specific binding model as follows: Y = Bmax*X/(Kd + X), where Y, X, Bmax, and Kd are the fluorescence intensity (counts/second), fluorescence probe concentration (μM), the maximum specific binding in the same units as Y, and the equilibrium dissociation constant in the same units as X.

rSol g 2.1 protein [2] = molecular target: T1, rSol g 2.1 protein; test: Fluorescence competitive binding assay (FCBA), 1-NPN displacement; conditions: 2 µM rSol g 2.1, 5 µM 1-NPN
Description: The FCBA is that a fluorescence probe, N-phenyl-1-naphthylamine (1-NPN, purity > 98%, Sigma Aldrich) binds with the hydrophobic binding cavity of the protein, especially with Tryptophan amino acid (Trp). Then Trp will transfer energy to 1-NPN-probe, leading to an increased emission wavelength at approximately 400 nm with dose-dependent. Besides, when the aliquot of a ligand competitor, the ligand will be competed for 1-NPN-probe, resulting in a decreased emission wavelength at 400 nm. In this study, we performed the FCBA to determine the binding activity of Sol g 2.1 protein and the potential ligands. To examine affinity binding, a stock solution of 5 mM 1-NPN in methanol (HPLC grade) was gradually added to a solution containing 2 µM rSol g 2.1 in 50 mM Tris–HCl buffer (pH 5.5 and pH 7.4) with 1% tween 20. Final concentrations of 0, 0.5, 1, 2, 4, 6, 8, 10, and 12 µM of 1-NPN were achieved, with methanol serving as a negative control. Fluorescence intensity was measured using a spectrofluorometer (FluoroMax + SpectroFluorometer, Horiba Scientific) with excitation at 337 nm and emission scanning from 370 to 490 nm, at room temperature, in triplicate. The equilibrium dissociation (Kd) value was determined by plotting the fluorescence intensity at 400 nm against each 1-NPN concentration. The data were fitted to a one-site-specific binding model as follows: Y = Bmax*X/(Kd + X), where Y, X, Bmax, and Kd are the fluorescence intensity (counts/second), fluorescence probe concentration (μM), the maximum specific binding in the same units as Y, and the equilibrium dissociation constant in the same units as X.
The potential ligands, including (E)-β-Farnesene, α-Caryophyllene, and 1-Octen-3-ol (all, Tokyo Chemical Industry (TCI), Tokyo, Japan) were used as competitors in the FCBA. For this, a mixture of 2 µM rSol g 2.1 protein and 5 µM 1-NPN in 50 mM Tris–HCl buffer (pH 5.5 and pH 7.4) with 1% tween 20 was titrated with each ligand (5 mM stock in methanol) to final concentrations of 0, 2, 4, 6, 8, 10, 12, 14, 20, 24, 28, and 32 µM. The fluorescence intensity at 400 nm for each concentration was fitted to the One Site-Fit Ki model to determine the dissociation constant of competitor ligands (Ki) as follows: logEC50 = log (10^logKi*(1 + RadioligandNM/HotKdNM))[22],[57]. Here, RadioligandNM represents the concentration of fixed 1-NPN (nM), HotKdNM represents Kd (nM), and Ki represents the equilibrium dissociation constant (Molar). All experiments were conducted in triplicate and analyzed using GraphPad Prism 9 software (San Diego, CA, USA)[22].

SMILES	Kd (rSol g 2.1 protein [1]; pH 5.5) [µM]	Kd (rSol g 2.1 protein [1]; pH 7.4) [µM]	Ki (rSol g 2.1 protein [2]; pH 5.5) [µM]	Ki (rSol g 2.1 protein [2]; pH 7.4) [µM]
c1ccc(Nc2cccc3ccccc23)cc1 [1-NPN, N-phenyl-1-naphthylamine]	4.83 ± 0.03	2.33 ± 0.05	–	–
C/C1=C\CC/C(C)=C/CC(C)(C)/C=C/C1 [α-Caryophyllene]	–	–	16	1.06
C=CC(=C)CC/C=C(\C)CCC=C(C)C [(E)-β-Farnesene]	–	–	1.24	0.72
C=CC(O)CCCCC (centres unmarked) [1-Octen-3-ol]	–	–	5.61	2
